Experimental data published in ChEMBL document CHEMBL5385861, “Development of novel hydrazidoarylaminopyrimidine-based BTK/FLT3 dual inhibitors with potent in vivo anti-hematological malignancies effects” (Eur J Med Chem, 2023).

Legend:
[1] = target: Tyrosine-protein kinase Blk (Homo sapiens) (UniProt P51451); assay: Inhibition of BLK (unknown origin) at 0.2 uM incubated for 40 mins by radiometric kinase assay relative to control
[2] = target: Serine/threonine-protein kinase B-raf (Homo sapiens) (UniProt P15056); assay: Inhibition of B-Raf (unknown origin) at 0.2 uM incubated for 40 mins by radiometric kinase assay relative to control
[3] = target: Calcium/calmodulin-dependent protein kinase kinase 2 (Homo sapiens) (UniProt Q96RR4); assay: Inhibition of CaMKK2 (unknown origin) at 0.2 uM incubated for 40 mins by radiometric kinase assay relative to control
[4] = target: Tyrosine-protein kinase CSK (Homo sapiens) (UniProt P41240); assay: Inhibition of CSK (unknown origin) at 0.2 uM incubated for 40 mins by radiometric kinase assay relative to control
Chain of Tyrosine-protein kinase CSK (Homo sapiens) (P41240 2-450 limits assumed): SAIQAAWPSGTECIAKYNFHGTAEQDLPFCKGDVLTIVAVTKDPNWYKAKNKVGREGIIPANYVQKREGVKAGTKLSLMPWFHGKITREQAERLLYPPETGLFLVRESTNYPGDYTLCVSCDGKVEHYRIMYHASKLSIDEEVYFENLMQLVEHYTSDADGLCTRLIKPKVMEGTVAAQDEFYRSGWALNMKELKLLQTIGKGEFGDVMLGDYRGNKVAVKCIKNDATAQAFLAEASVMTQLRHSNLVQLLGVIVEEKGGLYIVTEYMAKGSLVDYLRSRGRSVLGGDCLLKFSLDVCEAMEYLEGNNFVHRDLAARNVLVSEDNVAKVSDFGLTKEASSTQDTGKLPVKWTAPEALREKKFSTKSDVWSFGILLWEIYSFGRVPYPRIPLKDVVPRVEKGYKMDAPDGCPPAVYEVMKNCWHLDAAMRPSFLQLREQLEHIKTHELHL

[5] = target: Death-associated protein kinase 1 (Homo sapiens) (UniProt P53355); assay: Inhibition of DAPK1 (unknown origin) at 0.2 uM incubated for 40 mins by radiometric kinase assay relative to control
[6] = target: Epidermal growth factor receptor (Homo sapiens) (UniProt P00533); assay: Inhibition of EGFR (unknown origin) at 0.2 uM incubated for 40 mins by radiometric kinase assay relative to control
[7] = target: Vascular endothelial growth factor receptor 1 (Homo sapiens) (UniProt P17948); assay: Inhibition of FLT1 (unknown origin) at 0.2 uM incubated for 40 mins by radiometric kinase assay relative to control
Chain of Vascular endothelial growth factor receptor 1 (Homo sapiens) (P17948 whole entry): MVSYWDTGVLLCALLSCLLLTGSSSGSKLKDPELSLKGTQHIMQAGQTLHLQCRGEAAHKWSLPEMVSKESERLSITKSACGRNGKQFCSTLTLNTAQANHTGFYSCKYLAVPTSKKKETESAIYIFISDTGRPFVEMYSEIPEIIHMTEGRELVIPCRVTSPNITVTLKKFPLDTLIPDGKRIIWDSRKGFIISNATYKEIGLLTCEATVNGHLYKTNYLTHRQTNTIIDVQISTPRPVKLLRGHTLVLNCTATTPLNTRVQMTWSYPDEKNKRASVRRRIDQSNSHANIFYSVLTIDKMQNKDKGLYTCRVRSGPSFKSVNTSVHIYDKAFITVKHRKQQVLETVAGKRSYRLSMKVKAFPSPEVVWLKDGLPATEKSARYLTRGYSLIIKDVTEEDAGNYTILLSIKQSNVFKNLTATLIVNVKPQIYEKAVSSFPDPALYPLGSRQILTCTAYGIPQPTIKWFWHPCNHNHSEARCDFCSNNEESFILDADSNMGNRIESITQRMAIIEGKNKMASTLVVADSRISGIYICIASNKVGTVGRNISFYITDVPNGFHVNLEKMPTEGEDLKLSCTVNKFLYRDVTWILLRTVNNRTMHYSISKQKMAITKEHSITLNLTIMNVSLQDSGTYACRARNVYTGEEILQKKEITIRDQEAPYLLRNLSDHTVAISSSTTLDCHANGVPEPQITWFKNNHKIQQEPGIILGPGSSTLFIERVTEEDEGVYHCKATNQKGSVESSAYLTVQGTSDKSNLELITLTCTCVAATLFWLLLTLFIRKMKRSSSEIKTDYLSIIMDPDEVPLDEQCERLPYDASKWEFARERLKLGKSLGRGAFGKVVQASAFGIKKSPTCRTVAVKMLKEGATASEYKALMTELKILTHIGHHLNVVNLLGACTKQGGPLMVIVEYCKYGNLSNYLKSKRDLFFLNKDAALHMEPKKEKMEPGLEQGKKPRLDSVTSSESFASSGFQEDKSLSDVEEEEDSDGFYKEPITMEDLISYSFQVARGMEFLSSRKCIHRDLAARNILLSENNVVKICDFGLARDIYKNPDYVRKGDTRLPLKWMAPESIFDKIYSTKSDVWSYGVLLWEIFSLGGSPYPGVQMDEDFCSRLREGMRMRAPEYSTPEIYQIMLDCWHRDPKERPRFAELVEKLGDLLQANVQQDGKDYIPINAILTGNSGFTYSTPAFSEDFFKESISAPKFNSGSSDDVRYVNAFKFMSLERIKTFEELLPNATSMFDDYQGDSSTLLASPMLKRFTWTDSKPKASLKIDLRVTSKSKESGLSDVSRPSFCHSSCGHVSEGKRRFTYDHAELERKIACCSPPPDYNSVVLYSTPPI

[8] = target: Vascular endothelial growth factor receptor 3 (Homo sapiens) (UniProt P35916); assay: Inhibition of FLT4 (unknown origin) at 0.2 uM incubated for 40 mins by radiometric kinase assay relative to control
[9] = target: Macrophage colony-stimulating factor 1 receptor (Homo sapiens) (UniProt P07333); assay: Inhibition of Fms (unknown origin) at 0.2 uM incubated for 40 mins by radiometric kinase assay relative to control
Chain of Macrophage colony-stimulating factor 1 receptor (Homo sapiens) (P07333 whole entry): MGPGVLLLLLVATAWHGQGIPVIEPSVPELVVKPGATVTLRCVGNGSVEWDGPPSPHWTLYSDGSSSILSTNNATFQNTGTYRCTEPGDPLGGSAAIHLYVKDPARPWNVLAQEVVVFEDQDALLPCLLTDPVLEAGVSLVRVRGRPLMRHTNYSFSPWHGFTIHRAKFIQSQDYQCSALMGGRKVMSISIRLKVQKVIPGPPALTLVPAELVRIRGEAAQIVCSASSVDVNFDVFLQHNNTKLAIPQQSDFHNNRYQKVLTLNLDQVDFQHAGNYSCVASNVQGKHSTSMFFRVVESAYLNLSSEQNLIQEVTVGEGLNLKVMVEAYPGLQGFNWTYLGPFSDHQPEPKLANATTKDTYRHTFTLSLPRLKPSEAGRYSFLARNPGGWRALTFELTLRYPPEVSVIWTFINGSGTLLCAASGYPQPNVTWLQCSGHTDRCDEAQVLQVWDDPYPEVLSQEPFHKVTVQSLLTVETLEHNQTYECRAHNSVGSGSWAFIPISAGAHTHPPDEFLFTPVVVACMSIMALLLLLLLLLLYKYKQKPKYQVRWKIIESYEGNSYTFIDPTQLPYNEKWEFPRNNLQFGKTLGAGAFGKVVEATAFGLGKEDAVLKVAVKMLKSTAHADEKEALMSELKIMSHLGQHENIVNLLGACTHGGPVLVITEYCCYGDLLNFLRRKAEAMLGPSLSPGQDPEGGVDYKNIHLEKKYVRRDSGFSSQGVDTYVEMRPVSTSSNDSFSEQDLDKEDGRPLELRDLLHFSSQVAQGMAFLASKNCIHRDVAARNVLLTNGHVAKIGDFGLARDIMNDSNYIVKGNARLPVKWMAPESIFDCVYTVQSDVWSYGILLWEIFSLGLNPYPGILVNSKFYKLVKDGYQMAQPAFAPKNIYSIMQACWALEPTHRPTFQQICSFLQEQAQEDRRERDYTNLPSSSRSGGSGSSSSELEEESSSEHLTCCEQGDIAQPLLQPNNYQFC

[10] = target: Inhibitor of nuclear factor kappa-B kinase subunit beta (Homo sapiens) (UniProt O14920); assay: Inhibition of IKKbeta (unknown origin) at 0.2 uM incubated for 40 mins by radiometric kinase assay relative to control
Chain of Inhibitor of nuclear factor kappa-B kinase subunit beta (Homo sapiens) (O14920 whole entry): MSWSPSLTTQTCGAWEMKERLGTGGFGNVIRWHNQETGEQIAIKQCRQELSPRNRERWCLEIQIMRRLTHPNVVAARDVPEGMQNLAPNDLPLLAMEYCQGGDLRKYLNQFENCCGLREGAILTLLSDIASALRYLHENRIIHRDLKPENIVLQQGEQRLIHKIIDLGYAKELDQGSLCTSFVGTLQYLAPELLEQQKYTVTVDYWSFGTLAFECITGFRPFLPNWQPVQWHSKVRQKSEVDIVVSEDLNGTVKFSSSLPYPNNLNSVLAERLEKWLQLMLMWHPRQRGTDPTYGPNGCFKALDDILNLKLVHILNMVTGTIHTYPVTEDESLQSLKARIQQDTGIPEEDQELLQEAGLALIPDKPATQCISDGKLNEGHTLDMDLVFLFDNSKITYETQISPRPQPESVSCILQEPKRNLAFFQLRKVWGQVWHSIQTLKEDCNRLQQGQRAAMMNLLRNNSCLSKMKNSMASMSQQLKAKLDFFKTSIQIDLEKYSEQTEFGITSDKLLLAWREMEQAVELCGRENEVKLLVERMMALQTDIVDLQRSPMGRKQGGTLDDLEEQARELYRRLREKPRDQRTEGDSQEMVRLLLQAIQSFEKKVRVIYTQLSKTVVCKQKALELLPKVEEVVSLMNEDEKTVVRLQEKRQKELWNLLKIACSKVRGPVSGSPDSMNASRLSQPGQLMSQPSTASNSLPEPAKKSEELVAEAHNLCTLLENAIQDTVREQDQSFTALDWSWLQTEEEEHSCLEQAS

[11] = target: Tyrosine-protein kinase ITK/TSK (Homo sapiens) (UniProt Q08881); assay: Inhibition of ITK (unknown origin) at 0.2 uM incubated for 40 mins by radiometric kinase assay relative to control
[12] = target: Mitogen-activated protein kinase 9 (Homo sapiens) (UniProt P45984); assay: Inhibition of JNK2alpha2 (unknown origin) at 0.2 uM incubated for 40 mins by radiometric kinase assay relative to control
Chain of Mitogen-activated protein kinase 9 (Homo sapiens) (P45984 whole entry, looked up): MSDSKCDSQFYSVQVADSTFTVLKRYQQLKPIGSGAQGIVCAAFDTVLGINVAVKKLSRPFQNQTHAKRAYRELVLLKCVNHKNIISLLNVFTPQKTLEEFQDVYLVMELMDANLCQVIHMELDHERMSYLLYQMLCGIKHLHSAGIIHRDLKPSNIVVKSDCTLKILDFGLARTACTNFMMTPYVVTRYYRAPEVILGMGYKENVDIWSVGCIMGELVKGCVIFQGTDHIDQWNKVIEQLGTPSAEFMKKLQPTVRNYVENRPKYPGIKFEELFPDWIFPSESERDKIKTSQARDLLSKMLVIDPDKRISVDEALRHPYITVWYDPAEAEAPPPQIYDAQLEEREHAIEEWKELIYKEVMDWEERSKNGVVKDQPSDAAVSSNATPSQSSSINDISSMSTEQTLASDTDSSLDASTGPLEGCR

[13] = target: Dual specificity mitogen-activated protein kinase kinase 6 (Homo sapiens) (UniProt P52564); assay: Inhibition of MKK6 (unknown origin) at 0.2 uM incubated for 40 mins by radiometric kinase assay relative to control
[14] = target: Death-associated protein kinase 3 (Homo sapiens) (UniProt O43293); assay: Inhibition of ZIPK (unknown origin) at 0.2 uM incubated for 40 mins by radiometric kinase assay relative to control
Chain of Death-associated protein kinase 3 (Homo sapiens) (O43293 whole entry, looked up): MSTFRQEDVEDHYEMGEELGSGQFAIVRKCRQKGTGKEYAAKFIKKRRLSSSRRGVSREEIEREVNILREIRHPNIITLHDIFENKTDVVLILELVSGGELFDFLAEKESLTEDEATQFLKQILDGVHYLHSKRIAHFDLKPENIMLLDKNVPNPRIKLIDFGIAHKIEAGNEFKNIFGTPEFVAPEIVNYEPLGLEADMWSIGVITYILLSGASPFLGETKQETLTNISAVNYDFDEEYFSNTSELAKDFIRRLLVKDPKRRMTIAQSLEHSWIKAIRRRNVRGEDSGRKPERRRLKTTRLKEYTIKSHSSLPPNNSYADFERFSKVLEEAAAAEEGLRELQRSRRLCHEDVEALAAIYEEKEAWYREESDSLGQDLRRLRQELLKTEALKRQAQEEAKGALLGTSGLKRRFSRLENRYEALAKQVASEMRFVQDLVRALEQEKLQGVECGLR

JeKo-1 [15] = assay: Potency index, ratio of spebrutinib IC50 to test compound IC50 for antiproliferative activity against human JeKo-1 cells; format: functional
K562 [16] = assay: Potency index, ratio of spebrutinib IC50 to test compound IC50 for antiproliferative activity against human K562 cells; format: functional
MOLT-4 = assay: Potency index, ratio of ibrutinib IC50 to test compound IC50 for antiproliferative activity against human MOLT-4 cells; format: functional
MV4-11 [17] = assay: Potency index, ratio of sorafenib IC50 to test compound IC50 for antiproliferative activity against human MV4-11 cells; format: functional
[18] = target: Receptor-type tyrosine-protein kinase FLT3 (Homo sapiens) (UniProt P36888); assay: Inhibition of FLT3 phosphorylation in human JeKo-1 cells incubated for 72 hrs by Western blot analysis; format: cell-based; details: dose 30-750 nM
JeKo-1 [19] = assay: Induction of apoptosis in human JeKo-1 cells assessed as late apoptotic cells at 30 nM incubated for 72 hrs by Annexin VFITC/PI staining based flow cytometry analysis (reference value: 1.42%); format: functional
JeKo-1 [20] = assay: Induction of apoptosis in human JeKo-1 cells assessed as necrotic cells at 30 nM incubated for 72 hrs by Annexin VFITC/PI staining based flow cytometry analysis (reference value: 0.67%); format: functional
JeKo-1 [21] = assay: Induction of apoptosis in human JeKo-1 cells assessed as early apoptotic cells at 150 nM incubated for 72 hrs by Annexin VFITC/PI staining based flow cytometry analysis (reference value: 3.10%); format: functional
JeKo-1 [22] = assay: Induction of apoptosis in human JeKo-1 cells assessed as late apoptotic cells at 750 nM incubated for 72 hrs by Annexin VFITC/PI staining based flow cytometry analysis (reference value: 1.42%); format: functional
JeKo-1 [23] = assay: Induction of apoptosis in human JeKo-1 cells assessed as necrotic cells at 750 nM incubated for 72 hrs by Annexin VFITC/PI staining based flow cytometry analysis (reference value: 0.67%); format: functional
[24] = Acute toxicity in ip dosed ICR mouse assessed as effect on RBC level at 200 mg/kg, ip measured for 2 weeks; format: organism-based, Erythrocyte; details: in vivo, 336 h
JeKo-1 [25] = assay: Antitumor activity against human JeKo-1 cells xenografted in ip dosed NOD/SCID mouse assessed as suppression of tumor growth measured for 16 days; format: functional, organism-based; details: dose 25-50 mg/kg, time 16.0 day
JeKo-1 [26] = assay: Antitumor activity against human JeKo-1 cells xenografted NOD/SCID mouse assessed as tumor growth inhibition at 50 mg/kg, ip measured for 16 days; format: functional; details: JeKo-1, 384 h, time 16 day, read-out: TGI
MV4-11 [27] = assay: Antitumor activity against human MV4-11 cells xenografted NOD/SCID mouse assessed as reduction in tumor weight at 10 mg/kg, ip administered once daily for 21 days; format: functional; details: time 21 day
MV4-11 [28] = assay: Antitumor activity against human MV4-11 cells xenografted NOD/SCID mouse assessed as reduction in tumor weight at 20 mg/kg, ip administered once daily for 21 days; format: functional; details: time 21 day
K562 [29] = assay: cells; details: Homo sapiens, K562, 72 h
Description: Antiproliferative activity against human K562 cells assessed as inhibition of cell growth incubated for 72 hrs by CCK8 assay

in vitro = details: human, Caco-2
Description: Apparent permeability across basolateral to apical side in human Caco-2 cells incubated for 120 mins by LC-MS/MS analysis

[30] = test system: Tyrosine-protein kinase Tec; assay: Inhibition of TEC (unknown origin) at 0.2 uM incubated for 40 mins by radiometric kinase assay relative to control; details: Homo sapiens

Chain of Tyrosine-protein kinase Blk (Homo sapiens) (P51451 2-505 limits assumed): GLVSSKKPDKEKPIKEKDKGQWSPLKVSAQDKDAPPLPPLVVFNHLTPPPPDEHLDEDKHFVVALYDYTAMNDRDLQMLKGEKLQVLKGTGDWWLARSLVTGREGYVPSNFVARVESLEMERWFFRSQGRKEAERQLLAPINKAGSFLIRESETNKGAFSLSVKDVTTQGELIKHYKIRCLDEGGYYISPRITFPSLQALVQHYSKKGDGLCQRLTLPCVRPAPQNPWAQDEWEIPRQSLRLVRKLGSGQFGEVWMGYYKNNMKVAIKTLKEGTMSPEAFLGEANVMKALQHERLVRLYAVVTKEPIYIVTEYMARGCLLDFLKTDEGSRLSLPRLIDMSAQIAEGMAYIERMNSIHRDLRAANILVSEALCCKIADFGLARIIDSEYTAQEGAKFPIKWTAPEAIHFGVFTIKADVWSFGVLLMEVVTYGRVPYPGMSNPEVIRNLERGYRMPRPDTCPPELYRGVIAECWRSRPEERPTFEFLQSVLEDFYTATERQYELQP

`CN1CCN(c2ccc(Nc3ncc(F)c(Nc4ccccc4C(=O)NN)n3)cc2)CC1` gave an inhibition [1] of 62%, an inhibition [2] of 17% and an inhibition [3] of 27%. For the same compound, the inhibition [4] was 6%, the inhibition [5] was -1% and the inhibition [6] was 8%. It also gave an inhibition [7] of 100%, an inhibition [8] of 100% and an inhibition [9] of 67%. For the same compound, the inhibition [10] was 15%, the inhibition [11] was 65% and the inhibition [12] was 11%. The inhibition [13] was 10%, the inhibition [14] was 26% and the “Ratio IC50” value (JeKo-1 [15]) was 8. The “Ratio IC50” value (K562 [16]) was 8, the “Ratio IC50” value (MOLT-4) was 6 and the “Ratio IC50” value (MV4-11 [17]) was 1.3. The inhibition [18] was “Dose-Dependent Effect”, the Activity (JeKo-1 [19]) was 0.18% and the Activity (JeKo-1 [20]) was 0.22%. For the same compound, the Activity (JeKo-1 [21]) was 25.6%, the Activity (JeKo-1 [22]) was 0.47% and the Activity (JeKo-1 [23]) was 0.11%. The Activity [24] was “Toxic”, the Activity (JeKo-1 [25]) was “Dose-Dependent Effect” and the inhibition in vivo at 50 mg/kg (JeKo-1 [26]) was 79.8%. For the same compound, the Activity (MV4-11 [27]) was 0.33 g, the Activity (MV4-11 [28]) was 0.08 g and the IC50 (K562 [29]) was 0.93 µM. For the same compound, the Papp B→A at 2 h (in vitro) was 135 nm/s and the inhibition [30] was 47%.
